According to patent publication US8309721B2, “HSP90 inhibitory carbazole derivatives, compositions containing same and use thereof” (Sanofi, priority 2008, dated 2012):
pIC50: −log10 of the molar value. Counter-ions that a name gives are not always drawn. Like-named read-outs stand apart in the source and are kept apart here.

How the values were obtained:
[1] = tested on: Her2 receptor expression at the surface of SKBr3 cells; assay: phenotypic SKBr3/HER2 cell test (Her2 surface expression by flow cytometry); format: cell-based; settings: Homo sapiens, SK-BR-3, 24 h incubation, inhibition of Her2 expression
Outline: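 SKBr3 cells (Her2-overexpressing adenocarcinoma) treated 24 h with compound at varying concentrations, then stained with PE-anti-Her2 antibody 30 min at 4° C; surface Her2 measured by flow cytometry. IC50 from nonlinear fit of % inhibition of Her2 expression versus concentration.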

[2] = molecular target: Hsp82 (Saccharomyces cerevisiae, UniProt P02829); assay: Hsp82/ATPase test (malachite green or PK/LDH coupled method); format: biochemical
Protocol: The biochemical activity of the compounds can in particular be evaluated by means of the “Hsp82/ATPase” test described below: The inorganic phosphate released during the hydrolysis of ATP by the ATPase activity of Hsp82 is quantified by the malachite green method. In the presence of this reagent, formation of the inorganic phosphate-molybdate-malachite green complex, which absorbs at a wavelength of 620 nm, occurs. The products to be evaluated are incubated in a reaction volume of 30 μl, in the presence of 1 μM Hsp82 and of 250 μM of substrate (ATP) in a buffer composed of 50 mM Hepes-NaOH (pH 7.5), 1 mM DTT, 5 mM MgCl2 and 50 mM KCl at 37° C. for 60 min. In parallel, an inorganic phosphate range of between 1 and 40 μM is made up in the same buffer. […] After incubation at ambient temperature for 20 min, the absorbance of the various wells is measured using a microplate reader at 620 nm. The inorganic phosphate concentration of each sample is then calculated from the standard curve. The ATPase activity of Hsp82 is expressed as concentration of inorganic phosphate produced in 60 minutes. The effect of the various products tested is expressed as percentage inhibition of the ATPase activity. The formation of ADP due to the ATPase activity of Hsp82 was used to develop another method for evaluating the enzyme activity of this enzyme by application of an enzymatic coupling system involving pyruvate kinase (PK) and lactate dehydrogenase (LDH). In this kinetic-type spectrophotometric method, PK catalyses the formation of ATP and of pyruvate from phosphoenol pyruvate (PEP) and the ADP produced by Hsp82. The pyruvate formed, which is a substrate for LDH, is subsequently converted to lactate in the presence of NADH. In this case, the decrease in the NADH concentration, measured through the decrease in absorbance at the wavelength of 340 nm, is proportional to the concentration of ADP produced by Hsp82. The products tested are incubated in a reaction volume of 100 μl of buffer composed of 100 mM Hepes-NaOH (pH 7.5), 5 mM MgCl2, 1 mM DTT, 150 mM KCl, 0.3 mM NADH, 2.5 mM PEP and 250 μM ATP. This mixture is preincubated at 37° C. for 30 minutes before the addition of 3.77 units of LDH and 3.77 units of PK. The reaction is initiated by addition of the product to be evaluated, in varying concentrations, and of Hsp82, at the concentration of 1 μM. The enzymatic activity of Hsp82 is then measured continuously, in a microplate reader, at 37° C., at the wavelength of 340 nm. The initial rate of the reaction is obtained by measuring the slope of the tangent to the origin of the curve recorded. The enzymatic activity is expressed in μM of ADP formed per minute. The effect of the various products tested is expressed as percentage inhibition of the ATPase activity according to the codification below: […]

[3] = 1 μM Hsp82, 250 μM ATP, 37° C., read-out: Hsp82 ATPase IC50

Sequence of Hsp82 (P02829 whole entry): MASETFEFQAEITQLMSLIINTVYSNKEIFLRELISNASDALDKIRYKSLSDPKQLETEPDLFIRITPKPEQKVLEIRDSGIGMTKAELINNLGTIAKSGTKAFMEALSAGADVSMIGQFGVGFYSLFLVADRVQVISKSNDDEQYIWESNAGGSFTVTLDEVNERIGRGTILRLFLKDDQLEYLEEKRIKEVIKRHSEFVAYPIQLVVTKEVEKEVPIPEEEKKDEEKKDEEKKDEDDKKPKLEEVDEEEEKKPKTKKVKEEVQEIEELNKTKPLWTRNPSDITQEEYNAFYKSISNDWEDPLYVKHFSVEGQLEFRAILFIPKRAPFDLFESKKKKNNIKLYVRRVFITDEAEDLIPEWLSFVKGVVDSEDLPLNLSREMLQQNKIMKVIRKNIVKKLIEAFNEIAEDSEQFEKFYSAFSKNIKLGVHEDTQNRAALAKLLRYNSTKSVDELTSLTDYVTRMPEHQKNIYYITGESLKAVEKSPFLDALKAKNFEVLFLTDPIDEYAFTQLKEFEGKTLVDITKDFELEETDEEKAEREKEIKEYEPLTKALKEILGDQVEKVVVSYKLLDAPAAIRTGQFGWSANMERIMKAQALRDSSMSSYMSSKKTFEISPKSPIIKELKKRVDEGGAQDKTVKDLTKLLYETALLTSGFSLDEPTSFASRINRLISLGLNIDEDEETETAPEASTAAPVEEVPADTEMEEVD

Row | Structure (SMILES) | pIC50 [1] | pIC50 [2, 3] | melting point [°C] | pIC50 [2]
1 | COc1cncc(-c2cccc3c2c2ccccc2n3-c2ccc(C(N)=O)c(N[C@H]3CC[C@H](O)CC3)c2)c1 [Example 27, 2-[(4-trans-hydroxycyclohexyl)amino]-4-[4-(5-methoxypyridin-3-yl)-9H-carbazol-9-yl]benzamide] | > 6.00 | > 6.00 | 263 | –
2 | NC(=O)c1ccc(-c2cccc3c2c2ccccc2n3-c2ccc(C(N)=O)c(N[C@H]3CC[C@H](O)CC3)c2)cn1 [Example 28, 5-(9-{4-carbamoyl-3-[(4-trans-hydroxycyclohexyl)amino]phenyl}-9H-carbazol-4-yl)pyridine-2-carboxamide] | > 6.00 | 5.00 to 6.00 | > 260 | –
3 | NC(=O)c1ccc(-n2c3ccccc3c3c(-c4nc5ccc(F)cc5[nH]4)cccc32)cc1NC1CCCCC1 [Example 6, 2-cyclohexylamino-4-[4-(6-fluoro-1H-benzimidazol-2-yl)-9H-carbazol-9-yl]benzamide] | > 6.00 | 5.00 to 6.00 | – | –
4 | CN1C2CCC1CC(Nc1cc(-n3c4ccccc4c4c(-c5cnc6ccccc6c5)cccc43)ccc1C(N)=O)C2 (stereo not shown) [Example 138, 2-(8-methyl-8-azabicyclo[3.2.1]oct-3-yl)amino-4-[4-(quinolin-3-yl)-9H-carbazol-9-yl]benzamide] | > 6.00 | – | – | > 6.00
5 | NC(=O)c1ccc(-n2c3ccccc3c3c(-c4nc5cc(F)ccc5[nH]4)cccc32)cc1N [Example 10, 2-amino-4-[4-(6-fluoro-1H-benzimidazol-2-yl)-9H-carbazol-9-yl]benzamide] | 5.00 to 6.00 | > 6.00 | – | –
6 | NCCNc1cc(-n2c3ccccc3c3c(-c4nc5ccc(F)cc5[nH]4)cccc32)ccc1C(N)=O [Example 18, 2-(2-aminoethylamino)-4-[4-(6-fluoro-1H-benzimidazol-2-yl)-9H-carbazol-9-yl]benzamide] | 5.00 to 6.00 | > 6.00 | – | –
7 | CC(C)(C)OC(=O)NCCC(=O)O[C@H]1CC[C@H](Nc2cc(-n3c4ccccc4c4c(-c5nc6ccc(F)cc6[nH]5)cccc43)ccc2C(N)=O)CC1 [Example 23, 3-tert-butoxycarbonylaminopropionic acid 4-trans-{2-carbamoyl-5-[4-(6-fluoro-1H-benzimidazol-2-yl)-9H-carbazol-9-yl]phenylamino}cyclohexyl ester] | > 6.00 | 5.00 to 6.00 | – | –
8 | NC(=O)c1ccc(-n2c3ccccc3c3c(-c4nc5ccc(F)cc5[nH]4)cccc32)cc1NCCCO [Example 8, 4-[4-(6-fluoro-1H-benzimidazol-2-yl)-9H-carbazol-9-yl]-2-(3-hydroxypropylamino)benzamide] | > 6.00 | > 6.00 | – | –
9 | NC(=O)c1ccc(-n2c3ccccc3c3c(-c4nc5ccc(F)cc5[nH]4)cccc32)cc1N[C@H]1CC[C@H](O)CC1 [Example 1, 4-[4-(6-fluoro-1H-benzimidazol-2-yl)-9H-carbazol-9-yl]-2-(4-trans-hydroxycyclohexylamino)benzamide] | > 6.00 | > 6.00 | – | –

The next lines start with results.

Row | pIC50 [1] | pIC50 [2, 3] | melting point [°C] | Structure (SMILES) | pIC50 [2]
10 | 5.00 to 6.00 | 5.00 to 6.00 | 168 | NC(=O)c1ccc(-n2c3ccccc3c3c(-c4cncc(OCc5ccccc5)c4)cccc32)cc1NCCCO [Example 68, 4-{4-[5-(benzyloxy)pyridin-3-yl]-9H-carbazol-9-yl}-2-[(3-hydroxypropyl)amino]benzamide] | –
11 | 5.00 to 6.00 | > 6.00 | 198 | COc1cncc(-c2cccc3c2c2ccccc2n3-c2ccc(C(N)=O)c(NCCCO)c2)c1 [Example 66, 2-[(3-hydroxypropyl)amino]-4-[4-(5-methoxypyridin-3-yl)-9H-carbazol-9-yl]benzamide] | –
12 | 5.00 to 6.00 | 5.00 to 6.00 | 180 | NC(=O)c1ccc(-n2c3ccccc3c3c(-c4ccc(C(F)(F)F)nc4)cccc32)cc1NCCCO [Example 69, 2-[(3-hydroxypropyl)amino]-4-{4-[6-(trifluoromethyl)pyridin-3-yl]-9H-carbazol-9-yl}benzamide] | –
13 | > 6.00 | > 6.00 | 274 | N#Cc1ccc(-c2cccc3c2c2ccccc2n3-c2ccc(C(N)=O)c(N[C@H]3CC[C@H](O)CC3)c2)cn1 [Example 49, 4-[4-(6-cyanopyridin-3-yl)-9H-carbazol-9-yl]-2-[(4-trans-hydroxycyclohexyl)amino]benzamide] | –
14 | > 6.00 | – | 204 | N#Cc1ccc(-c2cccc3c2c2ccccc2n3-c2ccc(C(N)=O)c(NCCCO)c2)cn1 [Example 112, 4-[4-(6-cyanopyridin-3-yl)-9H-carbazol-9-yl]-2-[(3-hydroxypropyl)amino]benzamide] | –
15 | > 6.00 | > 6.00 | – | NCCCC[C@@H](N)C(=O)O[C@H]1CC[C@H](Nc2cc(-n3c4ccccc4c4c(-c5nc6ccc(F)cc6[nH]5)cccc43)ccc2C(N)=O)CC1 (stereo in doubt) [Example 36, trifluoroacetate of the 4-trans-{2-carbamoyl-5-[4(6-fluoro-1H-benzimidazol-2-yl)-9H-carbazol-9-yl]phenylamino}cyclohexyl ester of (S)-2,6-diaminohexanoic acid] | –
16 | > 6.00 | – | 256 | N#Cc1ccc(-c2cccc3c2c2ccccc2n3-c2ccc(C(N)=O)c(NC3CCOCC3)c2)cn1 [Example 126, 4-[4-(6-cyanopyridin-3-yl)-9H-carbazol-9-yl]-2-(tetrahydro-2H-pyran-4-ylamino)benzamide] | –
17 | > 6.00 | > 6.00 | – | NC(=O)c1ccc(-n2c3ccccc3c3c(-c4nc5ccc(F)cc5[nH]4)cccc32)cc1NC1CCOCC1 [Example 59, 4-[4-(6-fluoro-1H-benzimidazol-2-yl)-9H-carbazol-9-yl]-2-(tetrahydropyran-4-ylamino)benzamide] | –
18 | > 6.00 | > 6.00 | – | CN(C)CCNc1cc(-n2c3ccccc3c3c(-c4nc5ccc(F)cc5[nH]4)cccc32)ccc1C(N)=O [Example 43, 2-(2-dimethylaminoethylamino)-4-[4-(6-fluoro-1H-benzimidazol-2-yl)-9H-carbazol-9-yl]benzamide] | –
19 | > 6.00 | > 6.00 | – | CC(CCO)Nc1cc(-n2c3ccccc3c3c(-c4cnc5ccccc5c4)cccc32)ccc1C(N)=O (racemic) [Example 41, 2-[1-hydroxybutan-3(R,S)-ylamino]-4-[4-(quinolin-3-yl)-9H-carbazol-9-yl]benzamide] | –
20 | > 6.00 | > 6.00 | – | CC(O)CCNc1cc(-n2c3ccccc3c3c(-c4cnc5ccccc5c4)cccc32)ccc1C(N)=O (stereo not shown) [Example 32, 2-(3-hydroxybutyl)amino-4-[4-(quinolin-3-yl)-9H-carbazol-9-yl]benzamide] | –
